Results taken from patent US20090233928A1, “IMIDAZOLO-5-YL-2-ANILO-PYRIMIDINES AS AGENTS FOR THE INHIBITION OF CELL PROLIFERATION” (priority 2005, published 2009).

Molecular target: T1, CDK2/Cyclin E (Homo sapiens, UniProt P24941)
T1 construct: The open reading frames of CDK2 and Cyclin E were isolated; made in house; host or cells: Sf21 (Spodoptera frugiperda) insect cells, baculovirus co-infection; the GST-Rb substrate was made in E. coli BL21 (DE3) pLysS
Assay: in vitro kinase assay (Scintillation Proximity Assay), CDK2/Cyclin E, GST-Rb substrate
Type: biochemical
Conditions: in-vitro SPA kinase assay, read-out: CDK2 inhibitory activity IC50
Protocol: The compounds were tested in an in vitro kinase assay in 96 well format using Scintillation Proximity Assay (SPA—obtained from Amersham) for measuring incorporation of [γ-33-P]-Adenosine Triphosphate into a test substrate (GST-Retinoblastoma protein; GST-Rb). In each well was placed the compound to be tested (diluted in DMSO and water to correct concentrations) and in control wells either roscovitine as an inhibitor control or DMSO as a positive control. […]
The plates were sealed with Topseal-S plate sealers, left for two hours then spun at 2500 rpm, 1124×g., for 5 minutes. The plates were read on a Topcount for 30 seconds per well. […]
E. coli paste was resuspended in 10 ml/g of NETN buffer (50 mM Tris pH 7.5, 120 mM NaCl, 1 mM EDTA, 0.5% v/v NP-40, 1 mM PMSF, 1 ug/ml leupeptin, 1 ug/ml aprotinin and 1 ug/ml pepstatin) and sonicated for 2×45 seconds per 100 ml homogenate. […] The final product was analysed by Sodium Dodeca Sulfate (SDS) PAGE (Polyacrylamide gel) using 8-16% Tris-Glycine gels (Novex, San Diego, USA).
The open reading frames of CDK2 and Cyclin E were isolated by reverse transcriptase-PCR using HeLa cell and activated T cell mRNA as a template and cloned into the insect expression vector pVL1393 (obtained from Invitrogen 1995 catalogue number: V1392-20). […]

Compound: Cc1ncc(-c2ccnc(Nc3ccc(N4CCOCC4)nc3)n2)n1C(C)C [Example 22, 4-(1-Isopropyl-2-methyl-1H-imidazol-5-yl)-N-(6-morpholin-4-ylpyridin-3-yl)pyrimidin-2-amine]
- IC50: 49 nM
